From PubChem BioAssay AID2060511 (Molecular Pharmacology Branch, DTP, NCI, 2025)

Test system: 422866-222-R5-J1-PDC spheroids with HUVEC/MSC, viability
Experiment: Anticancer human tumor 422866-222-R5-J1-PDC patient-derived pancreatic adenocarcinoma cell line growth inhibition [GQUAD]
Settings: for IC50: curve of first compound; for viability, T/C: stronger effect = lower value
Summary of the method: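 Tumor cells were grown as complex spheroids with HUVEC endothelial cells and mesenchymal stem cells as stroma. G-quadruplex stabilizers were combined with targeted agents over half-log dilutions from near the clinical Cmax, or from 10 microM.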

[1] = second compound 0.0316 µM, first compound 0.0316 µM
[2] = second compound 0.0316 µM, first compound 0.1 µM
[3] = second compound 0.0316 µM, first compound 0.316 µM
[4] = second compound 0.0316 µM, first compound 1 µM
[5] = second compound 0.0316 µM, first compound 3.16 µM
[6] = second compound 0.0316 µM, first compound 10 µM
[7] = second compound 0.1 µM, first compound 0.0316 µM
[8] = second compound 0.1 µM, first compound 0.1 µM
[9] = second compound 0.1 µM, first compound 0.316 µM
[10] = second compound 0.1 µM, first compound 1 µM
[11] = second compound 0.1 µM, first compound 3.16 µM
[12] = second compound 0.1 µM, first compound 10 µM
[13] = second compound 0.316 µM, first compound 0.0316 µM
[14] = second compound 0.316 µM, first compound 0.1 µM
[15] = second compound 0.316 µM, first compound 0.316 µM
[16] = second compound 0.316 µM, first compound 1 µM
[17] = second compound 0.316 µM, first compound 3.16 µM
[18] = second compound 0.316 µM, first compound 10 µM
[19] = second compound 1 µM, first compound 0.0316 µM
[20] = second compound 1 µM, first compound 0.1 µM
[21] = second compound 1 µM, first compound 0.316 µM
[22] = second compound 1 µM, first compound 1 µM
[23] = second compound 1 µM, first compound 3.16 µM
[24] = second compound 1 µM, first compound 10 µM
[25] = second compound 3.16 µM, first compound 0.0316 µM
[26] = second compound 3.16 µM, first compound 0.1 µM
[27] = second compound 3.16 µM, first compound 0.316 µM
[28] = second compound 3.16 µM, first compound 1 µM
[29] = second compound 3.16 µM, first compound 3.16 µM
[30] = second compound 3.16 µM, first compound 10 µM
[31] = second compound 10 µM, first compound 0.0316 µM
[32] = second compound 10 µM, first compound 0.1 µM
[33] = second compound 10 µM, first compound 0.316 µM
[34] = second compound 10 µM, first compound 1 µM
[35] = second compound 10 µM, first compound 3.16 µM
[36] = second compound 10 µM, first compound 10 µM
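Also: spheroids exposed to compounds for seven days before reading.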
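For viability, T/C in this document: percent viability relative to DMSO vehicle control taken as 100%.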

SMILES: COc1cccc2c1C(=O)c1c(O)c3c(c(O)c1C2=O)CC(O)(C(=O)CO)CC3OC1CC(N)C(O)C(C)O1 (stereo unspecified) + CN(C)c1ccc(Nc2c3ccc(NC(=O)CCN4CCCC4)cc3nc3cc(NC(=O)CCN4CCCC4)ccc23)cc1
- IC50 (second compound 0.0316 µM): 596 nM
- IC50 (second compound 0.1 µM): 613 nM
- IC50 (second compound 0.316 µM): 900 nM
- IC50 (second compound 1 µM): 760 nM
- IC50 (second compound 3.16 µM): 562 nM
- IC50 (second compound 10 µM): 1000 nM
- viability, T/C [1]: 95.2%
- viability, T/C [2]: 66.8%
- viability, T/C [3]: 64.3%
- viability, T/C [4]: 42.9%
- viability, T/C [5]: 32%
- viability, T/C [6]: 32.3%
- viability, T/C [7]: 103%
- viability, T/C [8]: 73%
- viability, T/C [9]: 56.8%
- viability, T/C [10]: 48.8%
- viability, T/C [11]: 33.9%
- viability, T/C [12]: 37.9%
- viability, T/C [13]: 89.5%
- viability, T/C [14]: 66.3%
- viability, T/C [15]: 65.7%
- viability, T/C [16]: 48.3%
- viability, T/C [17]: 37.8%
- viability, T/C [18]: 37.5%
- viability, T/C [19]: 72.2%
- viability, T/C [20]: 59.5%
- viability, T/C [21]: 55.5%
- viability, T/C [22]: 51%
- viability, T/C [23]: 40.4%
- viability, T/C [24]: 33%
- viability, T/C [25]: 74.3%
- viability, T/C [26]: 68.5%
- viability, T/C [27]: 56%
- viability, T/C [28]: 44.8%
- viability, T/C [29]: 35.1%
- viability, T/C [30]: 36.5%
- viability, T/C [31]: 93%
- viability, T/C [32]: 69.4%
- viability, T/C [33]: 65.9%
- viability, T/C [34]: 48.1%
- viability, T/C [35]: 41.1%
- viability, T/C [36]: 33%

SMILES: O=C(c1cc(Cc2n[nH]c(=O)c3ccccc23)ccc1F)N1CCN(C(=O)C2CC2)CC1 + Cc1[nH]c2ccc(F)cc2c1-c1nc2c3cccnc3c3ncccc3c2[nH]1
- IC50 (second compound 0.0316 µM): > 10000 nM
- IC50 (second compound 0.1 µM): > 10000 nM
- IC50 (second compound 0.316 µM): > 10000 nM
- IC50 (second compound 1 µM): > 10000 nM
- IC50 (second compound 3.16 µM): > 10000 nM
- IC50 (second compound 10 µM): > 10000 nM
- viability, T/C [1]: 99%
- viability, T/C [2]: 87.9%
- viability, T/C [3]: 91%
- viability, T/C [4]: 77%
- viability, T/C [5]: 83.1%
- viability, T/C [6]: 65.6%
- viability, T/C [7]: 102%
- viability, T/C [8]: 85.1%
- viability, T/C [9]: 86%
- viability, T/C [10]: 89.2%
- viability, T/C [11]: 93%
- viability, T/C [12]: 81.4%
- viability, T/C [13]: 104%
- viability, T/C [14]: 83.9%
- viability, T/C [15]: 90.6%
- viability, T/C [16]: 72.8%
- viability, T/C [17]: 87.4%
- viability, T/C [18]: 79.7%
- viability, T/C [19]: 89.9%
- viability, T/C [20]: 100%
- viability, T/C [21]: 89.2%
- viability, T/C [22]: 88.7%
- viability, T/C [23]: 94.7%
- viability, T/C [24]: 83.6%
- viability, T/C [25]: 79.4%
- viability, T/C [26]: 83.5%
- viability, T/C [27]: 75.4%
- viability, T/C [28]: 100%
- viability, T/C [29]: 81.7%
- viability, T/C [30]: 79.6%
- viability, T/C [31]: 66.6%
- viability, T/C [32]: 70.8%
- viability, T/C [33]: 81.2%
- viability, T/C [34]: 64.2%
- viability, T/C [35]: 85.9%
- viability, T/C [36]: 77.7%

SMILES: CC[C@@]1(O)C(=O)OCc2c1cc1n(c2=O)Cc2cc3c(CN(C)C)c(O)ccc3nc2-1 + Cc1cnc(CNC(=O)c2c(=O)c3ccc(N4CCCN(C)CC4)nc3n3c2sc2ccccc23)cn1
- IC50 (second compound 0.0316 µM): 191 nM
- IC50 (second compound 0.1 µM): > 316 nM
- IC50 (second compound 0.316 µM): > 316 nM
- IC50 (second compound 1 µM): > 316 nM
- IC50 (second compound 3.16 µM): > 316 nM
- IC50 (second compound 10 µM): > 316 nM
- viability, T/C (second compound 0.0316 µM, first compound 0.000999 µM): 97.1%
- viability, T/C (second compound 0.0316 µM, first compound 0.00316 µM): 92.6%
- viability, T/C (second compound 0.0316 µM, first compound 0.00999 µM): 94%
- viability, T/C [1]: 77.1%
- viability, T/C (second compound 0.0316 µM, first compound 0.0999 µM): 51.4%
- viability, T/C [3]: 48.9%
- viability, T/C (second compound 0.1 µM, first compound 0.000999 µM): 95.8%
- viability, T/C (second compound 0.1 µM, first compound 0.00316 µM): 86.8%
- viability, T/C (second compound 0.1 µM, first compound 0.00999 µM): 82.8%
- viability, T/C [7]: 70.8%
- viability, T/C (second compound 0.1 µM, first compound 0.0999 µM): 69.6%
- viability, T/C [9]: 56.2%
- viability, T/C (second compound 0.316 µM, first compound 0.000999 µM): 89.2%
- viability, T/C (second compound 0.316 µM, first compound 0.00316 µM): 85%
- viability, T/C (second compound 0.316 µM, first compound 0.00999 µM): 87.3%
- viability, T/C [13]: 80.6%
- viability, T/C (second compound 0.316 µM, first compound 0.0999 µM): 80.9%
- viability, T/C [15]: 58.6%
- viability, T/C (second compound 1 µM, first compound 0.000999 µM): 78.6%
- viability, T/C (second compound 1 µM, first compound 0.00316 µM): 81.4%
- viability, T/C (second compound 1 µM, first compound 0.00999 µM): 76.5%
- viability, T/C [19]: 81.4%
- viability, T/C (second compound 1 µM, first compound 0.0999 µM): 83.6%
- viability, T/C [21]: 74.9%
- viability, T/C (second compound 3.16 µM, first compound 0.000999 µM): 79.7%
- viability, T/C (second compound 3.16 µM, first compound 0.00316 µM): 80.8%
- viability, T/C (second compound 3.16 µM, first compound 0.00999 µM): 83.8%
- viability, T/C [25]: 81.5%
- viability, T/C (second compound 3.16 µM, first compound 0.0999 µM): 90.9%
- viability, T/C [27]: 74.6%
- viability, T/C (second compound 10 µM, first compound 0.000999 µM): 82.6%
- viability, T/C (second compound 10 µM, first compound 0.00316 µM): 88.7%
- viability, T/C (second compound 10 µM, first compound 0.00999 µM): 81.1%
- viability, T/C [31]: 83.2%
- viability, T/C (second compound 10 µM, first compound 0.0999 µM): 88.4%
- viability, T/C [33]: 60.6%
